According to patent US5663346A, “Substituted azaindolylidene compounds and process for their preparation” (Pharmacia S.p.A., priority 1994, dated 1997):

What was measured:
[1] = molecular target: p45 v-abl tyrosine kinase; assay: p45 v-abl Kinase Assay ((Val5)-Angiotensin II phosphorylation); assay type: biochemical, Abelson murine leukemia virus; settings: in-vitro; (Val5)-Angiotensin II 2 mM, ATP 50 mM, 40 ng abl-kinase, pH 8.0; read-out: Inhibition of p-45 v-abl kinase, IC50
Protocol: p45 v-abl Kinase Purification
The enzyme used in our test was the p45 v-abl tyrosine kinase which represents the catalytic domain of the Abelson tyrosine kinase (isolated from the Abelson murine leukemia virus). The p45 v-abl kinase was produced and isolated as described by Wang et al. in J. Biol. chem 260, 64 (1985) and by Ferguson et al. in J. Biol. Chem 260, 3652 (1985) and in Biochem J. 257, 321 (1989).
(Val^5 )-Angiotensin II phosphorylation was performed by incubation with 40 ng of purified abl-kinase and (g-^32 p)-ATP, in […] of buffer containing Tris-HCl 25 mM, Ph 8.0, MgCl2 10 Mm and dithiothreitol 0.1 Mm (kinase buffer). The reaction mixture was incubated for the indicated time at […] and the reaction stopped by adding […] of 5% trichloroacetic acid. After a brief incubation on ice, tubes were centrifuged. The supernatants were spotted on phosphocellulose paper squares (Whatman P-81) and washed extensively in acetic acid. The radioactivity bound to dried phosphocellulose squares was measured in a liquid scintillation counter. IC50 values were. calculated from triplicated determinations of each experimental point. Each inhibitor was tested at concentrations ranging from […] in the presence of fixed concentrations of peptide (2 mM) and ATP (50 mM).

K562 cells = assay: K562 cell Growth Inhibition Assay; assay type: cell-based; settings: Homo sapiens, 66 h incubation, [3H]-Thymidine incorporation, with or without 10% foetal calf serum
Protocol: In-vivo Assay K562 cell Growth Inhibition Assay 1 ml of K562 cells, grown in suspension, were incubated for 66 h with or without 10% foetal calf serum in the presence of 1 mCi of [^3 H]-Thymidine. Cells were harvested, washed three times in cold PBS and treated with 5% trichloroacetic acid for 5 min. on ice. […] The extract was counted in a liquid scintillation counter. The inhibitory activity data for a representative compound according to the present invention, obtained both in the in-vitro p45 v-abl kinase assay and in the in-vivo human chronic myeloid leukemia K562 cell growth inhibition assay described above, are set out in Table 1.

| Compound | IC50 [1] [nM] | IC50 (K562 cells) [nM] |
| --- | --- | --- |
| Nc1ccc2c(c1)C(=Cc1c[nH]c3ncccc13)C(=O)N2 [5-amino-3-[(7-azaindol-3-yl)methylen]-2-oxindole ditrifluoroacetate] | 90 | 8800 |
| N#Cc1ccc2c(c1)C(=Cc1c[nH]c3ncccc13)C(=O)N2 [5-cyano-3-[(7-azaindol-3-yl)methylen]-2-oxindole] | 980 | 2520 |
